Experimental findings from patent publication US9173912B2 (priority 2008, dated 2015) are described below.

The structures appear in SMILES notation. Converted amounts (≈) assume the structure as drawn. Where only a bound is given, the exact number is not on record here.

Experiment [1] concerns herpes simplex viruses type 1 (HSV-1). Briefly: Virustatic activity: supernatant of infected human cells after inoculation with extract. It counts as cell-based. An excerpt: (§1) In addition, a quite universal usability of the invented extract on viral diseases could be shown with herpes simplex viruses type 1 (HSV-1):
The definition of virustatic activity is then identified via the supernatant of infected human cells after inoculation with extract. Aciclovir is the accepted positive control.

Experiment [2] has the same test system. Briefly: Virucidal activity: viral suspension exposed to extract, then infectiousness in cells measured. The class given is cell-based. As to conditions: Herpes Simplex Virus I. On the procedure:
as §1
In order to define the virucidal activity, a viral suspension is exposed to the extract and then the infectiousness of viruses in the cells is measured. Ethanol is used for positive controls.

Experiment [3] in a line: Inactivation of superoxide anions after stimulation with PMA (colour reduction). As to conditions: test concentration 200 μg/ml, versus untreated control (0% inactivation). On the procedure:
The concentration of oxygen radicals (superoxide anions) is regarded as measure for oxidative stress in organic tissues. By means of quantifying superoxide anions with a color reduction after stimulating with phorbol-12-myristat-13-acetate (PMA), the following antioxidative capacities have been recorded (test concentration 200 μg/ml) in comparison to an untreated control (0% inactivation): […]

For experiment [4], the target named is neuraminidase of Clostridium perfringens. As to conditions: read-out: IC 50 neuraminidase, Zanamivir column.

On to `Nc1nc2c(ncn2COCCO)c(=O)[nH]1` [Aciclovir], for which the IC50 in experiment [1] (Human alphaherpesvirus 1, Herpes Simplex Virus I, read-out: IC 50 Virustatic) was determined as 0.0002 mg/mL (≈ 0.000888 mM). For the same compound, the “IC 50 Virucidal” value in experiment [2] is recorded as “ineffective”.

On to `CCO` [Ethanol], for which, in experiment [1] (Herpes Simplex Virus I), the “IC 50 Virustatic” value is reported as “ineffective”. The IC50 in experiment [2] (Human alphaherpesvirus 1, read-out: IC 50 Virucidal) was determined as 80 mg/mL (≈ 1740 mM).

On to `O=C1O[C@H]([C@@H](O)CO)C(O)=C1O` [Vitamin C], for which the “Antioxidative capacity, inactivation of superoxide anions” value in experiment [3] came to 96.6%.

Regarding `CC(=O)N[C@H]1[C@H]([C@H](O)[C@H](O)CO)OC(C(=O)O)=C[C@@H]1N=C(N)N` [Zanamivir], in experiment [4], the IC50 was over 200 µM.
